The values that follow come from patent US4720387A (priority 1983, dated 1988).

The nature of data set [1]: relationship between antihypertensive effect and blood-level of pinacidil. More on the design: species or system inpatients suffering from hypertension. The note with it: in vivo. An excerpt: The term ΔMBP means the difference between the values of Mean Blood Pressure before and after the administration, and FIGS. 1 and 2 show the average of blood-levels or ΔMBP on the five inpatients.

Data set [2] in a line: adverse reaction at various dosages in inpatients. The data set is classed as in vivo, inpatients suffering from hypertension. The conditions noted are these: higher dosage affording sufficient therapeutic time.
The conditions of data set [3]: in vivo. The text has this:
[referred to Exp. 6-II), Table 12].
The frequency of the adverse reaction was compared between the two groups.

The nature of data set [4]: blood-level and excretion of native pinacidil. The class given is in vivo, inpatients suffering from hypertension.
The conditions of data set [5]: in vivo; cited from earlier work.

The term half-life denotes the time in which the quantity being followed falls by half. For the molecule `CC(N/C(=N\C#N)Nc1ccncc1)C(C)(C)C` (stereo not drawn) [pinacidil, N"-cyano-N-4-pyridyl-N'-1,2,2-trimethylpropylguanidine], in data set [1], the “blood-level at which the antihypertensive effect was minimum (minimum effective blood-level)” value was “around 20 ng/ml” and the “blood-level at which the antihypertensive effect was satisfactory” value is reported as “over 30 ng/ml”. In addition, the “adverse reaction at higher dosage” value in data set [2] is listed as “usually induced the adverse reaction (i.e. headache)”. In addition, in data set [3], the “blood-level at which side-effects (headache) occasionally occur” value was “over 100 ng/ml” and the “maximum safety level (blood-level)” value turned out to be 100 ng/mL. Also, in data set [4] (highest dosage of unprepared pinacidil to avoid the adverse reaction), the “time the effective blood-level is kept” value is listed as “about 6 hours”. In addition, in data set [4] (human, blood, administered after a meal, read-out: biological half-life period), the half-life fell in the range of 1 to 2 h. The Tmax in data set [4] (human, blood, administered after a meal, read-out: time to maximum concentration) lay within 1 to 3 h. Further, the “dose proportionality of blood-level” value in data set [5] is “increases in proportion to its dose level”.
